{
  "source": "PubChem BioAssay (NCI)",
  "assay_in_all_cases": "DTP human tumour cell line panel, 48 h",
  "key": {"[1]": {"test_system": "HS 578T breast"}, "[2]": {"test_system": "OVCAR-4 ovarian"}, "[3]": {"test_system": "MOLT-4 leukemia"}, "[4]": {"test_system": "MDA-MB-468 breast"}, "[5]": {"test_system": "U251 CNS"}, "[6]": {"test_system": "UO-31 renal"}, "[7]": {"test_system": "SK-OV-3 ovarian"}, "[8]": {"test_system": "SK-MEL-28 melanoma"}, "[9]": {"test_system": "HOP-92 NSCLC"}, "[10]": {"test_system": "SR leukemia"}, "[11]": {"test_system": "ACHN renal"}, "[12]": {"test_system": "MDA-MB-231 breast"}, "[13]": {"test_system": "NCI-H23 lung"}, "[14]": {"test_system": "IGROV1 ovarian"}, "[15]": {"test_system": "SN12C renal"}, "[16]": {"test_system": "A498 renal"}, "[17]": {"test_system": "KM12 colon"}, "[18]": {"test_system": "UACC-62 melanoma"}, "[19]": {"test_system": "HCC-2998 colon"}, "[20]": {"test_system": "NCI-H522 lung"}, "[21]": {"test_system": "786-0 renal"}, "[22]": {"test_system": "K-562 leukemia"}, "[23]": {"test_system": "SF-295 CNS"}, "[24]": {"test_system": "SK-MEL-2 melanoma"}, "[25]": {"test_system": "UACC-257 melanoma"}, "[26]": {"test_system": "SW-620 colon"}, "[27]": {"test_system": "CAKI-1 renal"}, "[28]": {"test_system": "T-47D breast"}, "[29]": {"test_system": "SNB-75 CNS"}, "[30]": {"test_system": "HOP-62 NSCLC"}, "[31]": {"test_system": "PC-3 prostate"}, "[32]": {"test_system": "NCI-H460 lung"}, "[33]": {"test_system": "TK-10 renal"}, "[34]": {"test_system": "BT-549 breast"}, "[35]": {"test_system": "DU-145 prostate"}, "[36]": {"test_system": "SF-539 CNS"}, "[37]": {"test_system": "MDA-MB-435"}, "[38]": {"test_system": "NCI-H226 lung"}, "[39]": {"test_system": "SNB-19 CNS"}, "[40]": {"test_system": "SK-MEL-5 melanoma"}, "[41]": {"test_system": "CCRF-CEM leukemia"}, "[42]": {"test_system": "M14 melanoma"}, "[43]": {"test_system": "NCI/ADR-RES ovarian"}, "[44]": {"test_system": "EKVX NSCLC"}, "[45]": {"test_system": "OVCAR-5 ovarian"}, "[46]": {"test_system": "LOX IMVI melanoma"}, "[47]": {"test_system": "HL-60(TB) leukemia"}, "[48]": {"test_system": "MALME-3M melanoma"}, "[49]": {"test_system": "SF-268 CNS"}},
  "note": "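Assay format: 96-well plates, 48-hour exposure. GI50 = concentration required for 50% inhibition of growth. TGI: concentration producing complete growth inhibition.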",
  "data": [
    {"smiles": "C=C(C)[C@@H]1CC[C@]2(C)[C@H](CC=C3[C@@H]4CC(C)(C)CC[C@]4(C(=O)N4CCOCC4)CC[C@]32C)[C@@]1(C)CCCN", "values": [
      {"measurement": "GI50", "setting": "[1]", "value": 1400, "unit": "nM"},
      {"measurement": "TGI", "setting": "[1]", "value": 2990, "unit": "nM"},
      {"measurement": "GI50", "setting": "[2]", "value": 1380, "unit": "nM"},
      {"measurement": "TGI", "setting": "[2]", "value": 2690, "unit": "nM"},
      {"measurement": "GI50", "setting": "[3]", "value": 1730, "unit": "nM"},
      {"measurement": "TGI", "setting": "[3]", "value": 4620, "unit": "nM"},
      {"measurement": "GI50", "setting": "[4]", "value": 1200, "unit": "nM"},
      {"measurement": "TGI", "setting": "[4]", "value": 2330, "unit": "nM"},
      {"measurement": "GI50", "setting": "[5]", "value": 1280, "unit": "nM"},
      {"measurement": "TGI", "setting": "[5]", "value": 2390, "unit": "nM"},
      {"measurement": "GI50", "setting": "[6]", "value": 1350, "unit": "nM"},
      {"measurement": "TGI", "setting": "[6]", "value": 3200, "unit": "nM"},
      {"measurement": "GI50", "setting": "[7]", "value": 7350, "unit": "nM"},
      {"measurement": "TGI", "setting": "[7]", "value": 21300, "unit": "nM"},
      {"measurement": "GI50", "setting": "[8]", "value": 1240, "unit": "nM"},
      {"measurement": "TGI", "setting": "[8]", "value": 2280, "unit": "nM"},
      {"measurement": "GI50", "setting": "[9]", "value": 1250, "unit": "nM"},
      {"measurement": "TGI", "setting": "[9]", "value": 2710, "unit": "nM"},
      {"measurement": "GI50", "setting": "[10]", "value": 407, "unit": "nM"},
      {"measurement": "TGI", "setting": "[10]", "value": 3090, "unit": "nM"},
      {"measurement": "GI50", "setting": "[11]", "value": 1340, "unit": "nM"},
      {"measurement": "TGI", "setting": "[11]", "value": 2400, "unit": "nM"},
      {"measurement": "GI50", "setting": "[12]", "value": 1370, "unit": "nM"},
      {"measurement": "TGI", "setting": "[12]", "value": 2430, "unit": "nM"},
      {"measurement": "GI50", "setting": "[13]", "value": 1310, "unit": "nM"},
      {"measurement": "TGI", "setting": "[13]", "value": 2450, "unit": "nM"},
      {"measurement": "GI50", "setting": "[14]", "value": 1560, "unit": "nM"},
      {"measurement": "TGI", "setting": "[14]", "value": 2990, "unit": "nM"},
      {"measurement": "GI50", "setting": "[15]", "value": 1290, "unit": "nM"},
      {"measurement": "TGI", "setting": "[15]", "value": 2440, "unit": "nM"},
      {"measurement": "GI50", "setting": "[16]", "value": 1410, "unit": "nM"},
      {"measurement": "TGI", "setting": "[16]", "value": 3100, "unit": "nM"},
      {"measurement": "GI50", "setting": "[17]", "value": 1350, "unit": "nM"},
      {"measurement": "TGI", "setting": "[17]", "value": 2600, "unit": "nM"},
      {"measurement": "GI50", "setting": "[18]", "value": 1560, "unit": "nM"},
      {"measurement": "TGI", "setting": "[18]", "value": 3560, "unit": "nM"},
      {"measurement": "GI50", "setting": "[19]", "value": 1220, "unit": "nM"},
      {"measurement": "TGI", "setting": "[19]", "value": 2250, "unit": "nM"},
      {"measurement": "GI50", "setting": "[20]", "value": 1340, "unit": "nM"},
      {"measurement": "TGI", "setting": "[20]", "value": 2550, "unit": "nM"},
      {"measurement": "GI50", "setting": "[21]", "value": 1180, "unit": "nM"},
      {"measurement": "TGI", "setting": "[21]", "value": 2340, "unit": "nM"},
      {"measurement": "GI50", "setting": "[22]", "value": 1960, "unit": "nM"},
      {"measurement": "TGI", "setting": "[22]", "value": 73500, "unit": "nM"},
      {"measurement": "GI50", "setting": "[23]", "value": 1300, "unit": "nM"},
      {"measurement": "TGI", "setting": "[23]", "value": 2400, "unit": "nM"},
      {"measurement": "GI50", "setting": "[24]", "value": 1430, "unit": "nM"},
      {"measurement": "TGI", "setting": "[24]", "value": 2960, "unit": "nM"},
      {"measurement": "GI50", "setting": "[25]", "value": 1290, "unit": "nM"},
      {"measurement": "TGI", "setting": "[25]", "value": 2610, "unit": "nM"},
      {"measurement": "GI50", "setting": "[26]", "value": 1190, "unit": "nM"},
      {"measurement": "TGI", "setting": "[26]", "value": 2270, "unit": "nM"},
      {"measurement": "GI50", "setting": "[27]", "value": 1230, "unit": "nM"},
      {"measurement": "TGI", "setting": "[27]", "value": 2250, "unit": "nM"},
      {"measurement": "GI50", "setting": "[28]", "value": 1860, "unit": "nM"},
      {"measurement": "TGI", "setting": "[28]", "value": 4700, "unit": "nM"},
      {"measurement": "GI50", "setting": "[29]", "value": 2000, "unit": "nM"},
      {"measurement": "TGI", "setting": "[29]", "value": 7890, "unit": "nM"},
      {"measurement": "GI50", "setting": "[30]", "value": 1390, "unit": "nM"},
      {"measurement": "TGI", "setting": "[30]", "value": 2830, "unit": "nM"},
      {"measurement": "GI50", "setting": "[31]", "value": 1490, "unit": "nM"},
      {"measurement": "TGI", "setting": "[31]", "value": 3870, "unit": "nM"},
      {"measurement": "GI50", "setting": "[32]", "value": 1190, "unit": "nM"},
      {"measurement": "TGI", "setting": "[32]", "value": 2250, "unit": "nM"},
      {"measurement": "GI50", "setting": "[33]", "value": 1640, "unit": "nM"},
      {"measurement": "TGI", "setting": "[33]", "value": 4360, "unit": "nM"},
      {"measurement": "GI50", "setting": "[34]", "value": 9160, "unit": "nM"},
      {"measurement": "TGI", "setting": "[34]", "value": 24000, "unit": "nM"},
      {"measurement": "GI50", "setting": "[35]", "value": 1500, "unit": "nM"},
      {"measurement": "TGI", "setting": "[35]", "value": 2960, "unit": "nM"},
      {"measurement": "GI50", "setting": "[36]", "value": 1260, "unit": "nM"},
      {"measurement": "TGI", "setting": "[36]", "value": 2280, "unit": "nM"},
      {"measurement": "GI50", "setting": "[37]", "value": 1220, "unit": "nM"},
      {"measurement": "TGI", "setting": "[37]", "value": 2310, "unit": "nM"},
      {"measurement": "GI50", "setting": "[38]", "value": 2780, "unit": "nM"},
      {"measurement": "TGI", "setting": "[38]", "value": 16500, "unit": "nM"},
      {"measurement": "GI50", "setting": "[39]", "value": 2120, "unit": "nM"},
      {"measurement": "TGI", "setting": "[39]", "value": 6820, "unit": "nM"},
      {"measurement": "GI50", "setting": "[40]", "value": 1560, "unit": "nM"},
      {"measurement": "TGI", "setting": "[40]", "value": 3470, "unit": "nM"},
      {"measurement": "GI50", "setting": "[41]", "value": 1330, "unit": "nM"},
      {"measurement": "TGI", "setting": "[41]", "value": 3680, "unit": "nM"},
      {"measurement": "GI50", "setting": "[42]", "value": 1430, "unit": "nM"},
      {"measurement": "TGI", "setting": "[42]", "value": 3250, "unit": "nM"},
      {"measurement": "GI50", "setting": "[43]", "value": 1440, "unit": "nM"},
      {"measurement": "TGI", "setting": "[43]", "value": 2770, "unit": "nM"},
      {"measurement": "GI50", "setting": "[44]", "value": 1370, "unit": "nM"},
      {"measurement": "TGI", "setting": "[44]", "value": 2880, "unit": "nM"},
      {"measurement": "GI50", "setting": "[45]", "value": 1380, "unit": "nM"},
      {"measurement": "TGI", "setting": "[45]", "value": 2690, "unit": "nM"},
      {"measurement": "GI50", "setting": "[46]", "value": 1250, "unit": "nM"},
      {"measurement": "TGI", "setting": "[46]", "value": 2260, "unit": "nM"},
      {"measurement": "GI50", "setting": "[47]", "value": 1000, "unit": "nM"},
      {"measurement": "TGI", "setting": "[47]", "value": 3320, "unit": "nM"},
      {"measurement": "GI50", "setting": "[48]", "value": 1310, "unit": "nM"},
      {"measurement": "TGI", "setting": "[48]", "value": 2380, "unit": "nM"},
      {"measurement": "GI50", "setting": "[49]", "value": 1980, "unit": "nM"},
      {"measurement": "TGI", "setting": "[49]", "value": 6220, "unit": "nM"}
    ]}
  ]
}
